Laboratory results reported in patent publication US8623909B2, “Prophylactic/therapeutic agents for lifestyle-related diseases” (priority 2008, dated 2014).

What was measured:
[1] = test system: UCP-1 mRNA in NIH-3T3-L1 cells; assay: UCP-1 mRNA expression level in NIH-3T3-L1 cells (real-time PCR); format: cell-based, mouse; settings: 10^−5M, 24 hours, control (DMSO) 1.0
Protocol: (§1) 1) Extraction of Total RNA
(§2) After respectively culturing the LNCaP cells and NIH-3T3-L1 cells co-transfected in 1) to 3) above in 6-well plates, the cells were cultured for 24 hours in EMEM or RPMI 1640 containing 10% fetal calf serum treated with dextran-charcoal and a test compound (dissolved in a small amount of DMSO). Subsequently, total RNA was respectively extracted using Isogen (Wako Pure Chemical Industries).
(§3) 5 μg aliquots of each total RNA obtained in 1) above were reverse-transcribed to first strand cDNA using a Superscript III Kit (Invitrogen) and brought to a final volume of 20 μL. Real-time PCR was carried out using LightCycler FastStart DNA Master SYBR Green I (Roche Diagnostic) in order to quantify expression of PSA mRNA in LNCaP cells and UCP-1 mRNA in NIH-3T3-L1 cells. PCR was carried out under the following conditions in 20 μL of reaction mixture: 50 cycles consisting of denaturing for 3 seconds at 95° C., annealing for 10 seconds at 60° C. and elongating for 25 seconds at 72° C. β-actin mRNA was also simultaneously amplified for use as an internal standard. Real-time PCR value for each transcription product were calculated as a relative ratio to β-actin.

PSA promoter = assay: PSA promoter-luciferase activity in LNCaP cells (dual-luciferase reporter); format: cell-based, human; settings: 10^−5M, 24 hours, control (DMSO) 1.0
Protocol: Plasmid pCMV-hAR was constructed based on a method previously reported by the inventors of the present invention (J. Biol. Chem., 282, 7329-7338). In addition, reporter plasmids consisting of PGL3-PSA (human) and PGL3-UCP-1 (mouse) were also constructed based on a method previously reported by the inventors of the present invention (Diabetes, 54, 1000-1008). Furthermore, pRL-SV40 was acquired commercially.
NIH-3T30-L1 mouse preadipocytes were cultured in Dulbecco's modified Eagle's medium (Sera Laboratories) containing 10% fetal calf serum. In addition, cells of human prostate cancer cell line LNCap were cultured in RPMI 1640 medium (Sigma) containing 10% fetal calf serum. Furthermore, these two types of cell lines were obtained from the American Type Culture Collection (Manassas).
The NIH-3T3-L1 cells of 2) above were co-transfected with pCMV-hAR, pRL-SV40 and PGL3-UCP-1 (mouse) in a 24-well plate using an Effectene Transfection Kit (Qiagen) and a Fugene HD Kit (Roche Diagnostics). In addition, the LNCaP cells of 2) above were similarly co-transfected with pCMV-hAR, pRL-SV40 and PGL3-PSA (human).
4) Measurement of Effect on PSA Promoter-Luciferase Activity in LNCaP Cells
The LNCaP cells co-transfected in 3) above were cultured for 24 hours in DMEM or RPMI 1640 containing 10% fetal calf serum treated with dextran-charcoal and a test compound (dissolved in a small amount of DMSO) 24 hours after transfection. Subsequently, the activities of firefly luciferase and Renilla luciferase were assayed in a 24-well plate using the Dual-Luciferase Reporter Assay System (Promega) in accordance with the protocol of Minilumat LB9507 (Berthold Technologies). Furthermore, the value of firefly luciferase activity were normalized based on the internal Renilla control, and were presented as relative luciferase activity.

PSA mRNA in LNCaP cells = assay: PSA mRNA expression level in LNCaP cells (real-time PCR); format: cell-based, human; settings: 10^−5M, 24 hours, control (DMSO) 1.0
Protocol: as §1, §2, §3

AR = molecular target: T1, AR (Homo sapiens, UniProt P10275); settings: previous studies of the inventors; cited from earlier work
T1 sequence (P10275 1-920): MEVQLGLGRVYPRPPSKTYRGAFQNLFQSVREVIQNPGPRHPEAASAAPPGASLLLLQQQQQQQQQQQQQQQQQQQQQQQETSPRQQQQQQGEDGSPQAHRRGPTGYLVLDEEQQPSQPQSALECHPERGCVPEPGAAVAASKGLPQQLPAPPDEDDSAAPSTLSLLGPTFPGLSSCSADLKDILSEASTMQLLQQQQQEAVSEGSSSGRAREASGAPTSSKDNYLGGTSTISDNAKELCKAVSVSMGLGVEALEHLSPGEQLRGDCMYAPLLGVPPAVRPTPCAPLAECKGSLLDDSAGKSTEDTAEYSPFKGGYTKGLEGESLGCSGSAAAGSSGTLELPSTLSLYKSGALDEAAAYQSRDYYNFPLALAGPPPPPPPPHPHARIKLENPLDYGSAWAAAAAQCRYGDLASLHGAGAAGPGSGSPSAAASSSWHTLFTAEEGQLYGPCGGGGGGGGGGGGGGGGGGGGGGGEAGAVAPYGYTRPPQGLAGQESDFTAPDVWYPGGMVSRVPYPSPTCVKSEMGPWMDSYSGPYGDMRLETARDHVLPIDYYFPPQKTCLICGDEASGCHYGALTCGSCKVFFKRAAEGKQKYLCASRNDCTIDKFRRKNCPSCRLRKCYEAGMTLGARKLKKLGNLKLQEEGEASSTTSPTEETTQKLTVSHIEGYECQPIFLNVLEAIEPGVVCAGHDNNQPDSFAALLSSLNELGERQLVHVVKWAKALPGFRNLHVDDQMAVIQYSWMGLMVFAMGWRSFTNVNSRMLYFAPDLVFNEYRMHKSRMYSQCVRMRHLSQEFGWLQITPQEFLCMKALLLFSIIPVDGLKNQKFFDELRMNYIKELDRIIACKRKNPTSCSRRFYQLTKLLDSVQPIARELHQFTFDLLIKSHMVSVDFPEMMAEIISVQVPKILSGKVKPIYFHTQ

SMILES | UCP-1 mRNA (relative ratio to β-actin mRNA) [1] | Value of luciferase transcription activity (PSA promoter, relative luciferase activity) (PSA promoter) | PSA mRNA (relative ratio to β-actin mRNA) (PSA mRNA in LNCaP cells) | Formation of subnuclear AR foci (dots) (in words) (AR)
CO[C@H]1CC[C@@]2(C)C(=CCC3C4CCOC[C@@]4(C)CCC32)C1 (stereo partly drawn) [Compound of formula (IIIa), 16a-homo-16a-oxestra-5-ene-3β-methoxide] | 1.8 | 0.8 | 0.8 | 
CC(C)(O)C(=O)Nc1ccc([N+](=O)[O-])c(C(F)(F)F)c1 [hydroxyflutamide] |  |  |  | do not form foci (dots)
CC(=O)O[C@H]1CC[C@]2(C)C3CC[C@]45C(=O)O[C@H](C)[C@H]4CCC5C3CC[C@H]2C1 (stereo partly shown) [Compound of formula (IIa)] | 1.4 | 0.8 | 0.9 | 
